# Like-named read-outs stand apart in the source and are kept apart here.
# What was measured:
# [1] = test system: 60 different human tumor cell lines; assay: NCI Development Therapeutics Program 60 cell line screen, one dose; assay type: cell-based
# NCI-H522 (NSCLC) = assay: NCI 60 one dose screen; assay type: cell-based, human; conditions: Non-small Cell Lung Cancer
# HCT-15 (Colon Cancer) = assay: NCI 60 one dose screen; assay type: cell-based, human
# SF-539 = assay: NCI 60 one dose screen; assay type: cell-based, human; conditions: one dose; CNS Cancer; SF-539
# [2] = test system: 60 different human tumor cell lines; conditions: for GI50 / TGI: five dose
# [3] = A549/ATCC (Non-small Cell Lung Cancer)
# [4] = HOP-62 (Non-small Cell Lung Cancer)
# [5] = HOP-92 (Non-small Cell Lung Cancer)
# [6] = MDA-MB-231/ATCC (Breast Cancer)
substance,measurement,setting,value
"(1S,2R,13R,14S,18S)-7-(2,4-dimethylanilino)-2,18-dimethyl-6-thia-8-azapentacyclo[11.7.0.02,10.05,9.014,18]icosa-5(9),7,10-trien-17-one [IIa.14]",Growth Percent,"[1]; Breast Cancer, BT-549",2.85%
same,Growth Percent,"[1]; Breast Cancer, HS 578T",45.27%
same,Growth Percent,"[1]; Breast Cancer, MCF7",18.18%
same,Growth Percent,"[1]; Breast Cancer, MDA-MB-231/ATCC",26.55%
same,Growth Percent,"[1]; Breast Cancer, MDA-MB-468",16.97%
same,Growth Percent,"[1]; Breast Cancer, T-47D",41.81%
same,Growth Percent,"[1]; CNS Cancer, SF-268",46.93%
same,Growth Percent,"[1]; CNS Cancer, SNB-19",44.03%
same,Growth Percent,"[1]; CNS Cancer, SNB-75",35.14%
same,Growth Percent,"[1]; CNS Cancer, U251",18.36%
same,Growth Percent,"[1]; Colon Cancer, COLO 205",62.35%
same,Growth Percent,"[1]; Colon Cancer, HCC-2998",84.48%
same,Growth Percent,"[1]; Colon Cancer, HCT-116",−27.32%
same,Growth Percent,"[1]; Colon Cancer, HT29",3.81%
same,Growth Percent,"[1]; Colon Cancer, KM12",44.55%
same,Growth Percent,"[1]; Colon Cancer, SW-620",4.35%
same,Growth Percent,"[1]; Leukemia, CCRF-CEM",7.99%
same,Growth Percent,"[1]; Leukemia, HL-60(TB)",9.29%
same,Growth Percent,"[1]; Leukemia, K-562",5.33%
same,Growth Percent,"[1]; Leukemia, MOLT-4",−0.31%
same,Growth Percent,"[1]; Leukemia, RPMI-8226",−3.52%
same,Growth Percent,"[1]; Leukemia, SR",−0.63%
same,Growth Percent,"[1]; Melanoma, LOX IMVI",−16.56%
same,Growth Percent,"[1]; Melanoma, M14",37.85%
same,Growth Percent,"[1]; Melanoma, MALME-3M",27.34%
same,Growth Percent,"[1]; Melanoma, MDA-MB-435",16.89%
same,Growth Percent,"[1]; Melanoma, SK-MEL-2",72.63%
same,Growth Percent,"[1]; Melanoma, SK-MEL-5",51.38%
same,Growth Percent,"[1]; Melanoma, SK-MEL-28",50.77%
same,Growth Percent,"[1]; Melanoma, UACC-62",39.03%
same,Growth Percent,"[1]; Melanoma, UACC-257",65.55%
same,Growth Percent,"[1]; Non-small Cell Lung Cancer, A549/ATCC",61.13%
same,Growth Percent,"[1]; Non-small Cell Lung Cancer, EKVX",51.95%
same,Growth Percent,"[1]; Non-small Cell Lung Cancer, HOP-62",45.74%
same,Growth Percent,"[1]; Non-small Cell Lung Cancer, HOP-92",65.93%
same,Growth Percent,"[1]; Non-small Cell Lung Cancer, NCI-H23",54.16%
same,Growth Percent,"[1]; Non-small Cell Lung Cancer, NCI-H226",72.85%
same,Growth Percent,"[1]; Non-small Cell Lung Cancer, NCI-H322M",79.50%
same,Growth Percent,"[1]; Non-small Cell Lung Cancer, NCI-H460",45.78%
same,Growth Percent,"[1]; Ovarian Cancer, IGROV1",17.68%
same,Growth Percent,"[1]; Ovarian Cancer, NCI/ADR-RES",53.35%
same,Growth Percent,"[1]; Ovarian Cancer, OVCAR-3",−6.33%
same,Growth Percent,"[1]; Ovarian Cancer, OVCAR-4",59.62%
same,Growth Percent,"[1]; Ovarian Cancer, OVCAR-5",59.08%
same,Growth Percent,"[1]; Ovarian Cancer, OVCAR-8",31.69%
same,Growth Percent,"[1]; Ovarian Cancer, SK-OV-3",78.49%
same,Growth Percent,"[1]; Prostate Cancer, DU-145",25.93%
same,Growth Percent,"[1]; Prostate Cancer, PC-3",15.83%
same,Growth Percent,"[1]; Renal Cancer, 786-0",5.54%
same,Growth Percent,"[1]; Renal Cancer, A498",66.68%
same,Growth Percent,"[1]; Renal Cancer, ACHN",32.28%
same,Growth Percent,"[1]; Renal Cancer, CAKI-1",49.83%
same,Growth Percent,"[1]; Renal Cancer, RXF 393",28.78%
same,Growth Percent,"[1]; Renal Cancer, SN12C",26.21%
same,Growth Percent,"[1]; Renal Cancer, TK-10",63.32%
same,Growth Percent,"[1]; Renal Cancer, UO-31",34.25%
same,Growth Percent,NCI-H522 (NSCLC),24.64%
same,Growth Percent,HCT-15 (Colon Cancer),0.81%
same,Growth Percent,SF-539,8.46%
same,CC50,[2],> 100000 nM
same,GI50,[2]; 786-0 (Renal Cancer),1620 nM
same,TGI,[2]; 786-0 (Renal Cancer),3.07E−6
same,GI50,[2]; A498 (Renal Cancer),2540 nM
same,GI50,[2]; [3],3500 nM
same,TGI,[2]; [3],>1.00E−4
same,GI50,[2]; ACHN (Renal Cancer),2080 nM
same,TGI,[2]; ACHN (Renal Cancer),4.53E−6
same,GI50,[2]; BT-549 (Breast Cancer),1490 nM
same,TGI,[2]; BT-549 (Breast Cancer),2.94E−6
same,GI50,[2]; CAKI-1 (Renal Cancer),2830 nM
same,TGI,[2]; CAKI-1 (Renal Cancer),>1.00E−4
same,GI50,[2]; CCRF-CEM (Leukemia),2450 nM
same,TGI,[2]; CCRF-CEM (Leukemia),>1.00E−4
same,GI50,[2]; COLO 205 (Colon Cancer),2500 nM
same,TGI,[2]; COLO 205 (Colon Cancer),6.54E−6
same,GI50,[2]; DU-145 (Prostate Cancer),2040 nM
same,TGI,[2]; DU-145 (Prostate Cancer),5.18E−6
same,GI50,[2]; EKVX (Non-small Cell Lung Cancer),2130 nM
same,GI50,[2]; HCC-2998 (Colon Cancer),1900 nM
same,TGI,[2]; HCC-2998 (Colon Cancer),3.74E−6
same,GI50,[2]; HCT-15 (Colon Cancer),2680 nM
same,GI50,[2]; HCT-116 (Colon Cancer),1490 nM
same,TGI,[2]; HCT-116 (Colon Cancer),2.85E−6
same,GI50,[2]; HL-60(TB) (Leukemia),2470 nM
same,TGI,[2]; HL-60(TB) (Leukemia),6.03E−6
same,GI50,[2]; [4],2430 nM
same,TGI,[2]; [4],6.92E−6
same,GI50,[2]; [5],1720 nM
same,TGI,[2]; [5],3.86E−6
same,GI50,[2]; HS 578T (Breast Cancer),3750 nM
same,TGI,[2]; HS 578T (Breast Cancer),>1.00E−4
same,GI50,[2]; HT29 (Colon Cancer),2550 nM
same,TGI,[2]; HT29 (Colon Cancer),7.04E−6
same,GI50,[2]; IGROV1 (Ovarian Cancer),2110 nM
same,TGI,[2]; IGROV1 (Ovarian Cancer),5.14E−6
same,GI50,[2]; K-562 (Leukemia),2860 nM
same,TGI,[2]; K-562 (Leukemia),>1.00E−4
same,GI50,[2]; KM12 (Colon Cancer),2780 nM
same,GI50,[2]; LOX IMVI (Melanoma),1640 nM
same,TGI,[2]; LOX IMVI (Melanoma),3.13E−6
same,GI50,[2]; M14 (Melanoma),1850 nM
same,TGI,[2]; M14 (Melanoma),3.79E−6
same,GI50,[2]; MALME-3M (Melanoma),1990 nM
same,TGI,[2]; MALME-3M (Melanoma),5.55E−6
same,GI50,[2]; MCF7 (Breast Cancer),2310 nM
same,TGI,[2]; MCF7 (Breast Cancer),>1.00E−4
same,GI50,[2]; [6],2330 nM
same,TGI,[2]; [6],7.92E−6
same,GI50,[2]; MDA-MB-435 (Melanoma),3020 nM
same,TGI,[2]; MDA-MB-435 (Melanoma),>1.00E−4
same,GI50,[2]; MDA-MB-468 (Breast Cancer),1930 nM
same,TGI,[2]; MDA-MB-468 (Breast Cancer),3.93E−6

# From US20250296953A1, “3,4-THIAZOLO-STEROIDS AND METHODS OF MAKING AND USING THE SAME” (Arkansas State University - Jonesboro, priority 2018, published 2025)
